{
  "source": "the NIST ThermoML archive (doi:10.1016/j.jct.2017.06.005)",
  "conditions": "369.8 K; Liquid; Ebulliometric method (Recirculating still)",
  "note": "Numbers after ± are expanded uncertainties.",
  "data": [
    {"compound": "CCCO", "note": "[propan-1-ol]", "values": [
      {"measurement": "vapor or sublimation pressure", "value": "100 ± 2", "unit": "kPa"}
    ]}
  ]
}
